Here are results for 19 compounds from US20250281424A1 (New York Blood Center, Inc, priority 2020, published 2025).

What is called IC50 is the concentration that gives 50% inhibition.

This experiment has as its target T1, human PF4 (Homo sapiens, UniProt P02776).
T1 construct: PF4 is a 70 amino acid, lysine-rich 7.8 kDa platelet-specific protein; made in house; host or cells: Escherichia coli BL21DE3 pLysS (pT7-7) and/or Drosophila S2 cells
T1 sequence (P02776 32-101): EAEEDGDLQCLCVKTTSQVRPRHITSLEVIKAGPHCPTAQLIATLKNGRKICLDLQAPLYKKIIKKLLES
Nature of the experiment: Inhibition of PF4 tetramer formation (BS3 cross-linking, SDS-PAGE). The format is biochemical. The conditions noted are these: for inhibition at 1 µM / inhibition at 3 µM / inhibition at 10 µM / inhibition at 5 µM: read-out: % inhibition of PF4 tetramer formation at single concentration of inhibitor; for inhibition at 10 µM: 10 μM inhibitor (column A); for IC50: read-out: IC50 of PF4 tetramer formation inhibition; for inhibition at 5 µM: 5 μM inhibitor. In outline: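 Monomer, dimer, trimer and tetramer fractions were quantified by densitometry after reducing 12% SDS-PAGE of BS3-cross-linked (0.2 mM, 30 min, room temperature) PF4. Before cross-linking, 10 μg/ml E. coli-expressed human WT PF4 in PBS was exposed to compound for 15 min at 37° C or 60 min at room temperature; controls lacked compound.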

Regarding `CC(C)(C)OC(=O)NCCC(=O)C1C(=O)c2ccc(C(=O)c3ccc4c(c3)C(=O)C(C(=O)CCNC(=O)OC(C)(C)C)C4=O)cc2C1=O` (stereo not shown) [Example 268, tert-butyl N-(3-{5-[2-(3-{[(tert-butoxy)carbonyl]amino}propanoyl)-1,3-dioxo-2,3-dihydro-1H-indene-5-carbonyl]-1,3-dioxo-2,3-dihydro-1H-inden-2-yl}-3-oxopropyl)carbamate], the inhibition at 1 µM (1 μM inhibitor) was 7%. For the setting “3 μM inhibitor (column A)”, the inhibition at 3 µM came to 25%.

As for `COCCOCCN(CC(=O)C1C(=O)c2ccc(C(=O)c3ccc4c(c3)C(=O)C(C(=O)CN(CCOCCOC)C(=O)OC(C)(C)C)C4=O)cc2C1=O)C(=O)OC(C)(C)C` (stereo not shown) [Example 391, tert-butyl N-[2-(5-{2-[2-(11,11-dimethyl-9-oxo-2,5,10-trioxa-8-azadodecan-8-yl)acetyl]-1,3-dioxo-2,3-dihydro-1H-indene-5-carbonyl}-1,3-dioxo-2,3-dihydro-1H-inden-2-yl)-2-oxoethyl]-N-[2-(2-methoxyethoxy)ethyl]carbamate], where the note is “1 μM inhibitor”, the inhibition at 1 µM stood at 1%. Moreover, where the note is “3 μM inhibitor (column A)”, the inhibition at 3 µM stood at 6%.

Consider `CSCCCC(=O)C1C(=O)c2ccc(C(=O)c3ccc4c(c3)C(=O)C(C(=O)CCCSC)C4=O)cc2C1=O` (stereo not shown) [Example 284, 2-[4-(methylsulfanyl)butanoyl]-5-{2-[4-(methylsulfanyl)butanoyl]-1,3-dioxo-2,3-dihydro-1H-indene-5-carbonyl}-2,3-dihydro-1H-indene-1,3-dione], for which the inhibition at 10 µM stood at 81% and the IC50 was 10 µM.

For the compound `CC(C)(C)OCC(=O)C1C(=O)c2ccc(S(=O)(=O)c3ccc4c(c3)C(=O)C(C(=O)COC(C)(C)C)C4=O)cc2C1=O` (stereo not shown) [Example 231, 2-[2-(tert-butoxy)acetyl]-5-({2-[2-(tert-butoxy)acetyl]-1,3-dioxo-2,3-dihydro-1H-inden-5-yl}sulfonyl)-2,3-dihydro-1H-indene-1,3-dione], the IC50 was 1.71 µM. Besides, for the setting “1 μM inhibitor”, the inhibition at 1 µM turned out to be 69%. Further, under “3 μM inhibitor (column A)”, the inhibition at 3 µM amounted to 65%.

With `CC(=O)OC[C@H]1O[C@@H](OC(C)=O)[C@H](NC(=O)C2C(=O)c3ccc(Oc4ccc5c(c4)C(=O)C(C(=O)N[C@H]4[C@H](OC(C)=O)O[C@H](COC(C)=O)[C@@H](OC(C)=O)[C@@H]4OC(C)=O)C5=O)cc3C2=O)[C@@H](OC(C)=O)[C@@H]1OC(C)=O` (stereo partly drawn) [Example 399, [(2R,3S,4R,5R,6S)-3,4,6-tris(acetyloxy)-5-{5-[(1,3-dioxo-2-{[(2S,3R,4R,5S,6R)-2,4,5-tris(acetyloxy)-6-[(acetyloxy)methyl]oxan-3-yl]carbamoyl}-2,3-dihydro-1H-inden-5-yl)oxy]-1,3-dioxo-2,3-dihydro-1H-indene-2-amido}oxan-2-yl]methyl acetate], the inhibition at 1 µM (1 μM inhibitor) turned out to be 21%. For the same compound, the inhibition at 3 µM (3 μM inhibitor (column A)) came to 28%.

In the case of `O=C(c1ccc2c(c1)C(=O)C(C(=O)NCCCc1ccccc1)C2=O)c1ccc2c(c1)C(=O)C(C(=O)NCCCc1ccccc1)C2=O` (stereo not shown) [Example 24, 5,5′-carbonylbis(1,3-dioxo-indan-2-carboxylic acid (3-(phenyl)propyl)-amide)], the inhibition at 5 µM amounted to 83%, the inhibition at 10 µM was determined as 89% and the IC50 was 5.11 µM.

With `O=C(c1ccc2c(c1)C(=O)C(C(=O)CC1CC1)C2=O)c1ccc2c(c1)C(=O)C(C(=O)CC1CC1)C2=O` (stereo not shown) [Example 140, 2-(2-cyclopropylacetyl)-5-[2-(2-cyclopropylacetyl)-1,3-dioxo-2,3-dihydro-1H-indene-5-carbonyl]-2,3-dihydro-1H-indene-1,3-dione], the inhibition at 5 µM turned out to be 92%, the inhibition at 10 µM stood at 93% and the IC50 was 4.7 µM.

As to `CC[C@H](NC(=O)OCc1ccccc1)C(=O)C1C(=O)c2ccc(C(=O)c3ccc4c(c3)C(=O)C(C(=O)[C@H](CC)NC(=O)OCc3ccccc3)C4=O)cc2C1=O` (stereo partly drawn) [Example 165, benzyl N—[(S)-1-(5-{2-[(2S)-2-{[(benzyloxy)carbonyl]amino}butanoyl]-1,3-dioxo-2,3-dihydro-1H-indene-5-carbonyl}-1,3-dioxo-2,3-dihydro-1H-inden-2-yl)-1-oxobutan-2-yl]carbamate], the inhibition at 5 µM was 75%, the inhibition at 10 µM came out at 75% and the IC50 is 3.3 µM.

For `O=C1c2ccc(S(=O)(=O)c3ccc4c(c3)C(=O)C(C(=O)C3CCCS3(=O)=O)C4=O)cc2C(=O)C1C(=O)C1CCCS1(=O)=O` (stereo not shown) [Example 372, 2-(5-{[2-(1,1-dioxo-1λ^6-thiolane-2-carbonyl)-1,3-dioxo-2,3-dihydro-1H-inden-5-yl]sulfonyl}-1,3-dioxo-2,3-dihydro-1H-indene-2-carbonyl)-1λ^6-thiolane-1,1-dione], the inhibition at 3 µM (3 μM inhibitor (column A)) was determined as 30%.

For `O=C1c2ccc(S(=O)(=O)c3ccc4c(c3)C(=O)C(C(=S)NC3CC3)C4=O)cc2C(=O)C1C(=S)NC1CC1` (stereo not shown) [Example 329, N-cyclopropyl-5-{[2-(cyclopropylcarbamothioyl)-1,3-dioxo-2,3-dihydro-1H-inden-5-yl]sulfonyl}-1,3-dioxo-2,3-dihydro-1H-indene-2-carbothioamide], the inhibition at 1 µM (1 μM inhibitor) came out at 22%. Also, the inhibition at 3 µM (3 μM inhibitor (column A)) stood at 50%.

In the case of `O=C(Cn1cccn1)C1C(=O)c2ccc(S(=O)(=O)c3ccc4c(c3)C(=O)C(C(=O)Cn3cccn3)C4=O)cc2C1=O` (stereo not shown) [Example 139, 5-({1,3-dioxo-2-[2-(1H-pyrazol-1-yl)acetyl]-2,3-dihydro-1H-inden-5-yl}sulfonyl)-2-[2-(1H-pyrazol-1-yl)acetyl]-2,3-dihydro-1H-indene-1,3-dione], the inhibition at 5 µM amounted to 87%, the inhibition at 10 µM is 97% and the IC50 is 7 µM.

In the case of `O=C(c1ccc2c(c1)C(=O)C(C(=O)NC1CCOCC1)C2=O)c1ccc2c(c1)C(=O)C(C(=O)NC1CCOCC1)C2=O` (stereo not shown) [Example 72, 5,5′-carbonylbis(1,3-dioxo-n-(tetrahydro-2h-pyran-4-yl)-2,3-dihydro-1h-indene-2-carboxamide)], the inhibition at 5 µM was 43% and the inhibition at 10 µM amounted to 52%.

Turning to `CC(C)(C)OC(=O)N1CCC[C@H]1C(=O)C1C(=O)c2ccc(Oc3ccc4c(c3)C(=O)C(C(=O)[C@@H]3CCCN3C(=O)OC(C)(C)C)C4=O)cc2C1=O` (stereo partly drawn) [Example 193, tert-butyl (2S)-2-[5-({2-[(2S)-1-[(tert-butoxy)carbonyl]pyrrolidine-2-carbonyl]-1,3-dioxo-2,3-dihydro-1H-inden-5-yl}oxy)-1,3-dioxo-2,3-dihydro-1H-indene-2-carbonyl]pyrrolidine-1-carboxylate], the inhibition at 5 µM is 37% and the inhibition at 10 µM came out at 40%.

Regarding `O=C1CC(=O)c2cc(S(=O)(=O)c3ccc4c(c3)C(=O)CC4=O)ccc21` [Example 12, 5,5′-sulfonylbis(1h-indene-1,3(2h)-dione)], the IC50 was found to be 2.32 µM.

For the compound `O=C(c1ccc2c(c1)C(=O)C(C(=O)CCC(=O)c1cccc(Cl)c1Cl)C2=O)c1ccc2c(c1)C(=O)C(C(=O)CCC(=O)c1cccc(Cl)c1Cl)C2=O` (stereo not shown) [Example 253, 2-[4-(2,3-dichlorophenyl)-4-oxobutanoyl]-5-{2-[4-(2,3-dichlorophenyl)-4-oxobutanoyl]-1,3-dioxo-2,3-dihydro-1H-indene-5-carbonyl}-2,3-dihydro-1H-indene-1,3-dione], the inhibition at 1 µM (1 μM inhibitor) came to 20%. For the same compound, where the note is “3 μM inhibitor (column A)”, the inhibition at 3 µM was 20%.

`CCOC(=O)CCNC(=O)C1C(=O)c2ccc(C(=O)c3ccc4c(c3)C(=O)C(C(=O)NCCC(=O)OCC)C4=O)cc2C1=O` (stereo not shown) [Example 27, 5,5′-carbonylbis(3-[(1,3-dioxo-indane-2-carbonyl)-amino]-propionic acid ethyl ester)]: the IC50 amounted to 10.8 µM.

In the case of `O=C(c1ccc2c(c1)C(=O)C(C(=O)C1CCN(C(=O)OCc3ccccc3)C1)C2=O)c1ccc2c(c1)C(=O)C(C(=O)C1CCN(C(=O)OCc3ccccc3)C1)C2=O` (stereo not shown) [Example 159, benzyl 3-[5-(2-{1-[(benzyloxy)carbonyl]pyrrolidine-3-carbonyl}-1,3-dioxo-2,3-dihydro-1H-indene-5-carbonyl)-1,3-dioxo-2,3-dihydro-1H-indene-2-carbonyl]pyrrolidine-1-carboxylate], the inhibition at 5 µM was determined as 85%, the inhibition at 10 µM came to 90% and the IC50 is 3.8 µM.

With `C[C@H](NC(=O)C1C(=O)c2ccc(S(=O)(=O)c3ccc4c(c3)C(=O)C(C(=O)N[C@@H](C)C(=O)O)C4=O)cc2C1=O)C(=O)O` (stereo partly drawn) [Example 318, (2S)-2-({5-[(2-{[(1S)-1-carboxyethyl]carbamoyl}-1,3-dioxo-2,3-dihydro-1H-inden-5-yl)sulfonyl]-1,3-dioxo-2,3-dihydro-1H-inden-2-yl}formamido) propanoic acid], the inhibition at 1 µM (1 μM inhibitor) is 15%. Further, the inhibition at 3 µM (3 μM inhibitor (column A)) was 36%.

For `O=C(CCC(=O)C1C(=O)c2ccc(S(=O)(=O)c3ccc4c(c3)C(=O)C(C(=O)CCC(=O)c3cccc(Cl)c3Cl)C4=O)cc2C1=O)c1cccc(Cl)c1Cl` (stereo not shown) [Example 255, 2-[4-(2,3-dichlorophenyl)-4-oxobutanoyl]-5-({2-[4-(2,3-dichlorophenyl)-4-oxobutanoyl]-1,3-dioxo-2,3-dihydro-1H-inden-5-yl}sulfonyl)-2,3-dihydro-1H-indene-1,3-dione], the “% inhibition of PF4 tetramer formation at single concentration of inhibitor” value is 9% (1 μM inhibitor, 1 µM) and 51% (3 μM inhibitor (column A), 3 µM). Moreover, the inhibition at 1 µM (1 μM inhibitor) amounted to 18%. Under “3 μM inhibitor (column A)”, the inhibition at 3 µM amounted to 42%.
